# Results as given in paper PMC7280531, “A PROTAC peptide induces durable β-catenin degradation and suppresses Wnt-dependent intestinal cancer” (Cell Discovery, 2020).
# Where a SMILES comes first, the peptide text is derived from it. Bridges are numbered along the chain shown (N, C = ends). [ ]: non-standard residue; d: D form. The star is where a group is joined. R8 = C=CCCCCCC[C@@](C)(N)C(=O)O; S5 = C=CCCC[C@](C)(N)C(=O)O; Cbz = O=C(OCc1ccccc1)*; Ahx = NCCCCCC(=O)O
# What was measured:
# β-catenin (133-665) = target: T1, β-catenin (133-665) (Homo sapiens, UniProt P35222); test: Isothermal titration calorimetry (ITC) of peptides with purified β-catenin
# T1 sequence (P35222 133-665): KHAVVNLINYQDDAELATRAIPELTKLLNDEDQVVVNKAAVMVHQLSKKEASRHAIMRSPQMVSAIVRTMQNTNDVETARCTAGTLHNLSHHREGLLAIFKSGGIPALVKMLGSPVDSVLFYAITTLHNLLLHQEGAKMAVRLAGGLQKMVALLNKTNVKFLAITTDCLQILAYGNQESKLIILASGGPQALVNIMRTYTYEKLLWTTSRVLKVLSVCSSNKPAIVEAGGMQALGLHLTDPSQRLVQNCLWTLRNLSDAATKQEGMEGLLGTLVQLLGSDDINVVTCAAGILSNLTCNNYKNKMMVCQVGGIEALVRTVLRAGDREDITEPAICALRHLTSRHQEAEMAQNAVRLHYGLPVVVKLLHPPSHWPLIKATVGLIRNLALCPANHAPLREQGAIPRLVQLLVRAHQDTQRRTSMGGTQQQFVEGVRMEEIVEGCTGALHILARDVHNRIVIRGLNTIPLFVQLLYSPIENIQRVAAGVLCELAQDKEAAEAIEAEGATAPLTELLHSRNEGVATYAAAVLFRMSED
# Protocol: The binding ability of the peptides with purified
# β-catenin protein in vitro.
# (a) Isothermal titration calorimetry (ITC) analysis to measure the interaction between
# Biotinylated peptides were incubated with streptavidin beads and then employed to
# The input β-catenin protein level
# was stained with Coomassie brilliant blue. The pulled down β-catenin was
# immunoblotted with anti-His antibody, and relative band intensity was quantified.
# [1] = cited from earlier work
# From the text: Peptide stapling chemistry developed by Verdine and coworkers, takes advantage of ruthenium-catalyzed metathesis to crosslink the side chains of paired anchoring residues at suitable positions, and has been successfully applied to design various peptide inhibitors with improved proteolytic stability, membrane permeability, and thus biological activity[11],[12]. Modeled after the same Axin-derived peptide motif, we and Verdine la ... || There is more space for the improvement of the working efficacy of xStAx-VHLL. The VHL peptide ligand inserted in this study consists of natural amino acids, which could be degraded once the PROTAC peptide enters the cell. Non-natural residues substitution instead of original ones, such as reported hydroxyproline to replace regular proline[31],[32], could be an effective approach to enhance the proteolytic resistance of PROTAC. It was previously reported that peptide double-stapling at both N-terminals and C-terminals rather than single stapling conferred striking protease resistance upon the ...
# β-catenin [2] = target: T2, β-catenin (Homo sapiens, UniProt P35222); test: β-catenin immunoblotting / immunoprecipitation in HEK293T cells
# T2 sequence (P35222 1-781): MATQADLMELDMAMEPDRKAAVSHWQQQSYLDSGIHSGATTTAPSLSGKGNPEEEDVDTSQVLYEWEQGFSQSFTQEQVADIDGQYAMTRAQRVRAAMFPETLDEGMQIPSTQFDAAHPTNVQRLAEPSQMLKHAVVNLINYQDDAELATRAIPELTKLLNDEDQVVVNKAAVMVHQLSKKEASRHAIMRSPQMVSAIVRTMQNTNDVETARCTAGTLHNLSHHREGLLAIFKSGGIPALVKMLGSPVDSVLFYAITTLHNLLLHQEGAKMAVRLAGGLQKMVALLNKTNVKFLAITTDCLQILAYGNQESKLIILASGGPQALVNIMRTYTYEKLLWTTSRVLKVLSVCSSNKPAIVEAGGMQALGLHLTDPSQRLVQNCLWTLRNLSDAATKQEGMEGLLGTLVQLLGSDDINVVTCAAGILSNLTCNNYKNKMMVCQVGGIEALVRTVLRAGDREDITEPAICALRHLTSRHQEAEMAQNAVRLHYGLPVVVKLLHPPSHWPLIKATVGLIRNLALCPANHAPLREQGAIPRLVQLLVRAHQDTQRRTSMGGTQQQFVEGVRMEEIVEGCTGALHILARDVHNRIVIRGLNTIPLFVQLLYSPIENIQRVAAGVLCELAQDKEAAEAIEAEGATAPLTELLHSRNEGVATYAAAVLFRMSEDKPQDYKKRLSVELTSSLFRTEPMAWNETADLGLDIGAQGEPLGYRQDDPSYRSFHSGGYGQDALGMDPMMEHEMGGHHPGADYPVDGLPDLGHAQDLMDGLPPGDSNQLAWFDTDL
# Protocol: The relative band intensity was quantified with ImageJ and normalized to GAPDH.
# For immunoprecipitation, the cells were lysed in TNE lysis buffer (50 mM Tris-HCl, pH 8.0, 150 mM NaCl, 1% Nonidet P-40, and protease inhibitor cocktail). […] After 18,000×g centrifugation for 10 min, the lysates were immunoprecipitated with specific antibody and protein A-Sepharose beads and then washed the beads with TNE buffer for three times before immunoblotting.
# APC^−/− organoids = test: APC^−/− mouse intestinal organoid culture; type: cell-based; settings: 10 μM MSAB or 50 μM xStAx-VHLL, 4 days
# β-catenin [3] = test: β-catenin immunoblotting in colorectal cancer cells (HCT116, SW480, LoVo); type: cell-based; settings: 50 μM xStAx-VHLL, 24 h
# Protocol: Relative
# β-catenin protein level was quantified with ImageJ and normalized to GAPDH. Data […]
# (b) LoVo cells were treated with 50 μM xStAx (xS), 50 μM
# immunoblotting. (c, d) LoVo (c) and SW480 (d) cells were treated with different
smiles,measurement,setting,value
"CC[C@H](C)[C@@H]1NC(=O)[C@](C)(NC(=O)[C@H](CCC(N)=O)NC(=O)[C@@H]2CCCN2C(C)=O)CCCCCCC=CCCC[C@@](C)(C(=O)N[C@@H](CCCNC(=N)N)C(=O)N[C@H](C(=O)N[C@@H](CCSC)C(=O)N[C@@H](CCCCN)C(N)=O)C(C)C)NC(=O)[C@H](C(C)C)NC(=O)[C@H](Cc2c[nH]cn2)NC(=O)[C@H](CCC(N)=O)NC(=O)[C@H](CC(=O)O)NC(=O)[C@H](CC(C)C)NC1=O [SAHPA1, reference compound] (Ac-PQ[R8]ILDQHV[S5]RVMK-NH2; staple 3-10)",Kd,β-catenin (133-665),38 µM
same,ability to penetrate the cell membrane,[1],capable of penetrating the cell membrane
"CC(C)C[C@@H](C=O)NC(=O)[C@H](CC(C)C)NC(=O)[C@H](CC(C)C)NC(=O)OCc1ccccc1 [MG132, reference compound] (Cbz-Leu-Leu-Leu-aldehyde)",effect of proteasome inhibitor on xStAx-VHLL-induced β-catenin degradation,"β-catenin [2]; peptides 70 μM and MG132 10 μM, 16 h",blocked β-catenin degradation
CC[C@H](C)[C@@H]1NC(=O)[C@](C)(NC(=O)[C@H](CCC(N)=O)NC(=O)[C@@H]2CCCN2C(C)=O)CCCCCCC=CCCC[C@@](C)(C(=O)N[C@@H](CCCNC(=N)N)C(=O)N[C@H](C(=O)N[C@@H](CCSC)C(=O)N[C@@H](CCCCN)C(=O)NCCCCCC(=O)N[C@@H](C)C(=O)N[C@@H](CC(C)C)C(=O)N[C@@H](C)C(=O)N2CCC[C@H]2C(=O)N[C@@H](Cc2ccc(O)cc2)C(=O)N[C@H](C(=O)N2CCC[C@H]2C(N)=O)[C@@H](C)CC)C(C)C)NC(=O)[C@H](C(C)C)NC(=O)[C@H](Cc2c[nH]cn2)NC(=O)[C@H](CCC(N)=O)NC(=O)[C@H](CC(=O)O)NC(=O)[C@H](CC(C)C)NC1=O [SAHPA1-VHLL] (Ac-PQ[R8]ILDQHV[S5]RVMK[Ahx]ALAPYIP-NH2; staple 3-10),Kd,β-catenin (133-665),55 µM
CC[C@H](C)[C@@H]1NC(=O)[C@@](C)(NC(=O)[C@H](CCCNC(=N)N)NC(=O)[C@@H]2CCCN2C(=O)[C@H](Cc2c[nH]c3ccccc23)NC(=O)[C@H](CCCNC(=N)N)NC(=O)[C@H](CCCNC(=N)N)NC(C)=O)CCCC=CCCC[C@@](C)(C(=O)N[C@@H](Cc2c[nH]cn2)C(=O)N[C@H](C(=O)N[C@@H](CCCNC(=N)N)C(=O)N[C@@H](CCCNC(=N)N)C(=O)N[C@H](C(=O)N[C@@H](Cc2c[nH]c3ccccc23)C(=O)N[C@@H](CCCNC(=N)N)C(N)=O)C(C)C)C(C)C)NC(=O)[C@H](CC(=O)O)NC(=O)[C@H](CC(C)C)NC1=O [xStAx] (Ac-RRWPR[S5]ILD[S5]HVRRVWR-NH2; staple 6-10),ability to penetrate the cell membrane,[1],capable of penetrating the cell membrane
"COC(=O)c1cccc(NS(=O)(=O)c2ccc(C)cc2)c1 [MSAB, reference compound]","APC^−/− organoid survival, MSAB versus xStAx-VHLL",APC^−/− organoids,minimal effect
same,"β-catenin protein level, MSAB versus xStAx-VHLL","β-catenin [3]; HCT116 and SW480, 10 μM MSAB",decreased β-catenin protein to a comparable level
same,"β-catenin protein level, MSAB versus xStAx-VHLL","β-catenin [3]; LoVo, 10 μM MSAB",had no effect
same,"β-catenin protein level, MSAB versus xStAx-VHLL","β-catenin [2]; 10 μM MSAB, 50 μM xStAx-VHLL (legend: 70 μM, Wnt3a CM), 24 h",decreased β-catenin protein to a comparable level
same,β-catenin level after wash-out of the drug,"β-catenin [2]; MSAB 10 μM or xStAx-VHLL 70 μM 24 h, then fresh medium 24 or 48 h",restored after 24 h
"Cc1ncsc1-c1ccc(CNC(=O)[C@@H]2C[C@@H](O)CN2C(=O)[C@@H](NC(=O)C2(C#N)CC2)C(C)(C)C)cc1 [VH-298, reference compound]",effect of VHL ligase inhibitor on xStAx-VHLL-mediated β-catenin degradation,"β-catenin [3]; LoVo, 100 μM inhibitor",blocked it
same,effect of VHL ligase inhibitor on xStAx-VHLL-mediated β-catenin degradation,"β-catenin [2]; Wnt3a CM, 70 μM xStAx-VHLL, 100 μM inhibitor, 24 h",blocked it
